Consider eleven molecules from ChEMBL document CHEMBL1201862, “PubChem BioAssay data set” (2004).

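Five concentrations, 48 hours, 96-well plates. The concentration for 50% growth inhibition is given as GI50.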 Activity calls are given as the source filed them. Rule as the data show it: active = GI50 up to about 1.1 µM and inactive = higher.

Among the test systems are SK-MEL-5; U-251; KM12; UACC-257; K562; COLO 205; HOP-62; SF-539; OVCAR-4; SNB-19; SN12C; SK-MEL-2; SK-OV-3; LXFL 529; T47D; RXF 393; MDA-MB-231; HCT-116; HL-60; DU-145.
Common to all, as to experiment: DTP human tumour cell line panel, 48 h

Usually GI50 stands for the concentration giving 50% growth inhibition. As to `CCOc1ccc(NC2=NC(=O)C(CC(=O)Nc3ccc(Cl)cc3Cl)S2)cc1` (stereo unspecified), the GI50 in the assay with SK-MEL-5, with U-251, with KM12, in the assay with UACC-257, in the assay on K562 and in the assay on COLO 205 was > 100 µM (inactive) each time. Also, the GI50 in the assay with HOP-62, in the assay with SF-539, in the assay on OVCAR-4, in the assay on SNB-19, with SN12C and in the assay on SK-MEL-2 was > 100 µM (inactive) in each case. The GI50 with SK-OV-3 and in the assay with LXFL 529 was > 100 µM (inactive) throughout.

As for `FC(F)(F)c1cccc(-c2nc3ccccc3c3c2[C@@]2(N4CCCC4)CCCC[C@@H]32)c1`, the GI50 is 15.8 µM (inactive) in the assay with SK-MEL-5; 23.1 µM (inactive) in the assay with U-251; 76 µM (inactive) with T47D; 35.6 µM (inactive) in the assay with KM12; 44.9 µM (inactive) in the assay with UACC-257; 30.8 µM (inactive) with K562. The GI50 in the assay on COLO 205 was 15.5 µM (inactive); in the assay on RXF 393 it was 38.1 µM (inactive); with MDA-MB-231, 18.5 µM (inactive); with HOP-62, 32.3 µM (inactive); in the assay on SF-539 it was 37.1 µM (inactive); in the assay on OVCAR-4, 35.3 µM (inactive). Besides, the GI50 was 50.9 µM (inactive) with SNB-19; 40.4 µM (inactive) in the assay on SN12C; 17.8 µM (inactive) in the assay with SK-MEL-2; 35.6 µM (inactive) in the assay on HCT-116; 36.9 µM (inactive) in the assay with SK-OV-3; 25.8 µM (inactive) with HL-60. Also, the GI50 with DU-145 is 51.5 µM (inactive).

With `CN(C)c1ccc(/C=C/c2ccnc3ccccc23)cc1`, the GI50 with SK-MEL-5 is 75.9 µM (inactive); in the assay on U-251, 84.7 µM (inactive); with T47D, 96.8 µM (inactive); in the assay on KM12, 55.8 µM (inactive); in the assay on UACC-257, > 100 µM (inactive); with K562, 33.5 µM (inactive). The GI50 in the assay with COLO 205 was 28.8 µM (inactive); in the assay on RXF 393, 54.3 µM (inactive); in the assay with MDA-MB-231 it was 23.3 µM (inactive); with HOP-62 it was > 100 µM (inactive); in the assay with SF-539 it was > 100 µM (inactive); in the assay on OVCAR-4 it was 55.6 µM (inactive). Further, the GI50 in the assay with SNB-19 is > 100 µM (inactive); in the assay with SN12C it was 64.9 µM (inactive); in the assay with SK-MEL-2, 58.2 µM (inactive); in the assay on HCT-116, 39.8 µM (inactive); with SK-OV-3, 54.5 µM (inactive); in the assay on HL-60, 31.6 µM (inactive). In the assay with DU-145, the GI50 is 47.9 µM (inactive).

Take `Cc1cc(C)nc(NS(=O)(=O)c2ccc(Nc3c4ccccc4nc4ccc(C(=O)Nc5ccc(S(=O)(=O)N=C(N)N)cc5)cc34)cc2)n1`: the GI50 with SK-MEL-5 was 97.3 µM (inactive); with U-251 it was 60.7 µM (inactive); in the assay with T47D, 38.2 µM (inactive); in the assay on KM12 it was > 100 µM (inactive); in the assay on UACC-257, 72.3 µM (inactive); in the assay on K562, 25.2 µM (inactive). Also, the GI50 is > 100 µM (inactive) in the assay with COLO 205; 50.8 µM (inactive) in the assay with RXF 393; 81.8 µM (inactive) with MDA-MB-231; > 100 µM (inactive) in the assay on HOP-62; > 100 µM (inactive) in the assay with SF-539; 55.3 µM (inactive) with OVCAR-4. Further, the GI50 in the assay on SNB-19 was > 100 µM (inactive); in the assay with SN12C, 97.7 µM (inactive); with SK-MEL-2, > 100 µM (inactive); in the assay on HCT-116 it was 70.1 µM (inactive); in the assay with SK-OV-3 it was > 100 µM (inactive); with HL-60 it was 34.3 µM (inactive). In addition, the GI50 with DU-145 was > 100 µM (inactive).

Consider `CC1=C(C)C(=O)O[C@@H]([C@](C)(O)[C@]2(O)CC[C@@]3(O)[C@@H]4C[C@H](O)[C@]5(O)[C@@H](O)C=CC(=O)[C@]5(C)[C@H]4CC[C@]23C)C1`, for which the GI50 in the assay with SK-MEL-5 was > 100 µM (inactive); with U-251, 89.9 µM (inactive); in the assay with T47D, > 100 µM (inactive); with KM12 it was > 100 µM (inactive); in the assay with UACC-257, > 100 µM (inactive); in the assay on K562, 67.3 µM (inactive). For the same molecule, the GI50 with COLO 205, in the assay with RXF 393, in the assay on MDA-MB-231, in the assay with HOP-62, in the assay with SF-539 and in the assay on OVCAR-4 was > 100 µM (inactive) in each case. Also, the GI50 in the assay on SNB-19 is > 100 µM (inactive); in the assay on SN12C it was > 100 µM (inactive); in the assay on SK-MEL-2 it was > 100 µM (inactive); in the assay on HCT-116 it was 86.9 µM (inactive); in the assay on SK-OV-3 it was > 100 µM (inactive); in the assay with HL-60, 18 µM (inactive). Further, the GI50 in the assay on DU-145 was > 100 µM (inactive).

Turning to `Oc1ccccc1/C=N/c1ccccc1/N=C/c1ccccc1O`, the GI50 was 86.1 µM (inactive) in the assay on SK-MEL-5; 30.9 µM (inactive) in the assay on U-251; > 100 µM (inactive) in the assay on KM12; 38.7 µM (inactive) in the assay with UACC-257; 21.5 µM (inactive) in the assay with K562; > 100 µM (inactive) in the assay with COLO 205. Besides, the GI50 with HOP-62 is > 100 µM (inactive); in the assay with SF-539, 71.3 µM (inactive); with SNB-19, 34.4 µM (inactive); in the assay with SN12C, > 100 µM (inactive); with HCT-116, > 100 µM (inactive); in the assay with SK-OV-3, > 100 µM (inactive). Besides, the GI50 in the assay on LXFL 529 is 31.7 µM (inactive); with HL-60, 15 µM (inactive).

For `Cc1c(Cl)c(C)c(Cl)c(O)c1Cl`, the GI50 was 15.3 µM (inactive) with SK-MEL-5; 16.3 µM (inactive) in the assay with U-251; 24.8 µM (inactive) with T47D; 26.3 µM (inactive) in the assay with KM12; 22.1 µM (inactive) in the assay on UACC-257; 17.5 µM (inactive) with K562. The GI50 in the assay with COLO 205 is 60 µM (inactive); with RXF 393, 26 µM (inactive); with MDA-MB-231 it was 27 µM (inactive); in the assay with HOP-62, 31.9 µM (inactive); with SF-539, 29 µM (inactive); in the assay with OVCAR-4 it was 26 µM (inactive). Moreover, the GI50 was 30.5 µM (inactive) in the assay with SNB-19; 24.2 µM (inactive) with SN12C; 13.2 µM (inactive) in the assay on SK-MEL-2; 18.2 µM (inactive) in the assay with HCT-116; 26.5 µM (inactive) in the assay with SK-OV-3; 18.7 µM (inactive) in the assay on HL-60. The GI50 with DU-145 was 37 µM (inactive).

Turning to `COc1ccc2c(c1)CC[C@@H]1C2CC[C@]2(C)OC(=O)CCC12` (stereo partly specified), the GI50 in the assay on SK-MEL-5 was 12.6 µM (inactive); in the assay on U-251 it was 6.87 µM (inactive); in the assay with T47D it was 34.6 µM (inactive); with KM12 it was 32.2 µM (inactive); in the assay on UACC-257, 12.8 µM (inactive); in the assay with K562, 3.01 µM (inactive). In addition, the GI50 in the assay with COLO 205 was 40.3 µM (inactive); in the assay on RXF 393, 12.7 µM (inactive); in the assay on MDA-MB-231, 2.45 µM (inactive); in the assay with HOP-62, 25 µM (inactive); in the assay on SF-539 it was 15.2 µM (inactive); with OVCAR-4, 6.12 µM (inactive). Besides, the GI50 with SNB-19 is 17.4 µM (inactive); with SN12C it was 14.8 µM (inactive); in the assay on SK-MEL-2, 23.1 µM (inactive); in the assay on HCT-116 it was 8.89 µM (inactive); in the assay with SK-OV-3, > 100 µM (inactive); in the assay on HL-60 it was > 100 µM (inactive). Besides, in the assay with DU-145, the GI50 was 43.6 µM (inactive).

Turning to `N=CCCN(CCC=N)c1ccc(/C=C2\CN(NC(=O)c3ccc(Cl)cc3)C(c3ccccc3)=N2)cc1`, the GI50 in the assay with SK-MEL-5 was > 100 µM (inactive); with U-251 it was 25.8 µM (inactive); with KM12 it was > 100 µM (inactive); in the assay on UACC-257, > 100 µM (inactive); with K562, > 100 µM (inactive); in the assay with COLO 205, > 100 µM (inactive). In addition, the GI50 in the assay on HOP-62, with SF-539, in the assay with OVCAR-4, with SNB-19, in the assay with SN12C and in the assay with SK-MEL-2 was > 100 µM (inactive) in each case. The GI50 with HCT-116, in the assay with SK-OV-3, in the assay with LXFL 529 and with HL-60 was > 100 µM (inactive) throughout.

On to `COC(=O)[C@@H]1C2OC(C)(C)OC2CN1C(=O)OCc1ccccc1` (stereo partly specified), for which the GI50 in the assay on SK-MEL-5, in the assay on U-251, in the assay with T47D, with KM12, with UACC-257 and with K562 was > 100 µM (inactive) each time. The GI50 in the assay on COLO 205, with RXF 393, with MDA-MB-231, in the assay with HOP-62, in the assay with SF-539 and in the assay with OVCAR-4 was > 100 µM (inactive) throughout. Also, the GI50 with SNB-19, in the assay on SN12C, in the assay with SK-MEL-2, with HCT-116, in the assay with SK-OV-3 and in the assay with HL-60 was > 100 µM (inactive) each time. The GI50 in the assay with DU-145 is > 100 µM (inactive).

On to `O=c1c2ccccc2oc2ccccc12.Oc1cccc2cccnc12`, for which the GI50 is 1.95 µM (inactive) in the assay on SK-MEL-5; 5.3 µM (inactive) with KM12; 2.73 µM (inactive) in the assay on UACC-257; 4.99 µM (inactive) in the assay on K562; 3.05 µM (inactive) with COLO 205; 7.43 µM (inactive) with HOP-62. The GI50 in the assay with SF-539 is 2.36 µM (inactive); with OVCAR-4, 5.89 µM (inactive); in the assay with SNB-19 it was 3.36 µM (inactive); in the assay with SN12C it was 2.22 µM (inactive); with HCT-116 it was 2.56 µM (inactive); in the assay with SK-OV-3 it was < 0.01 µM (active). The GI50 with LXFL 529 is 1.56 µM (inactive); with HL-60, 0.67 µM (active).
